Results on 90 molecules are retold here after a melting point compilation (Tetko et al.; mined from patent text by program, amines drawn as free bases though some values may be those of a salt).

Structures are written as SMILES.

`CCCc1c(OCc2ccc(C=CC(=O)O)cc2)ccc(C(C)=O)c1O`: the melting point (as a rule, the temperature, or range, at which the solid turns liquid) lay in the range of 203 to 204 °C.
For the molecule `CCCN(c1nc(-c2ccc(OC)cc2Cl)c(C)s1)c1cc(C(=O)O)ccc1OC`, the melting point was 109 °C.
`CCOC(=O)c1cn(-c2c(OCc3ccccc3)cccc2OCc2ccccc2)cn1` registered a melting point of 125 to 126 °C.
In the case of `COC(=O)C1=C(C)NC(C)C(C(=O)OC)=C1c1cc(Cl)ccc1COCc1ccccc1` (stereo not given) it was 156 to 158 °C; in that of `C#CC1(O)CCC2C3CCC4=CC(=O)CCC4C3CCC21CCC` (stereo not given), 149 to 150 °C; in that of `CCOC(=O)C(=CNC1CC1)C(=O)c1cc(F)c(F)c(Br)c1F`, 74 to 76 °C.
As to `CCOC(=O)c1cn(CCO)c2c(F)c(F)c(F)cc2c1=O`, the melting point lay in the range of 175 to 177 °C.
As for `CSc1nnc(SCC2=C(C(=O)O)N3C(=O)C(NC(=O)Cc4csc(=O)s4)C3SC2)s1` (stereo not given), the melting point was determined as 160 °C.
`Cc1cccc(CCC(=O)Cn2ccnc2)c1` gave a melting point of 160 to 162 °C.
`N#Cc1ccc(N2CCN(Cc3cnc4c(c3)NC(=O)[C@@H]3CCCN43)CC2)c(Cl)c1` returned a melting point of 213 to 215 °C.
Turning to `C=CCc1c(OC(C)=O)cc(C)c2c(C)cc(=O)oc12`, the melting point was found to be 166 °C.
`Brc1ccc(CC2=NCCN2)c2ccccc12` had a melting point of 133 to 135 °C.
As to `OCC(CO)(OCc1ccccc1)c1ccccc1`, the melting point was 83 to 86 °C.
In the case of `CCOC(=O)c1cc2cc(CC#N)ccc2o1` it was 76 to 77 °C.
The molecule `FC(F)(c1ccccc1)c1nc(-c2ccncc2)cs1` came in with a melting point of 54.5 to 55.5 °C.
In the case of `O=c1cc(COC2CCCCO2)occ1OCCCCBr` (stereo not given) it was 71.5 °C.
Regarding `COc1ccc(C2=NN(C3CCCCCCC3)C(=O)[C@H]3CC=CC[C@@H]23)cc1OC` (relative stereo), the melting point lay in the range of 75 to 77 °C.
In the case of `O=C(Nc1ccccc1OCC1CO1)c1cccc2[nH]ccc12` (stereo not given) it was 122 °C; in that of `C1CCC(Nc2nc(NC3CCCCC3)nc(NC3CCCCC3)n2)CC1`, 225 °C.
For `C=Cc1cccc2[nH]c(C(=O)O)cc(=O)c12` the value was 265 to 266 °C; for `CS(=O)(=O)c1ccc(Oc2ccc([N+](=O)[O-])c(NCCC(N)=O)c2)c(Cl)c1`, 135 °C; for `CN1C(=O)CC[C@]2(C)c3ccc(NC(=O)c4cccc([N+](=O)[O-])c4)cc3CC[C@@H]12`, 240 to 242 °C.
Regarding `CCCCN(c1nc(N(CC)CC)nc(N(CCCC)C2CC(C)(C)NC(C)(C)C2)n1)C1CC(C)(C)NC(C)(C)C1`, the melting point is 74 to 76 °C.
In the case of `Cc1cc(-c2ccc(C(F)(F)F)c(C)c2)cc(-c2cccc(-c3cccc(S(N)(=O)=O)c3)n2)n1`, the melting point was over 250 °C.
In turn, `Cc1cc2nc3ccc(C(=O)O)cn3c(=O)c2s1` returned a melting point of 338 to 340 °C.
On to `CNC(=O)CC1CN=C(c2cc3cc(Oc4ccc(CS(C)(=O)=O)nc4)cc(OC4CCOCC4)c3[nH]2)S1` (stereo not given), for which the melting point was in the range of 157 to 158 °C.
In the case of `COc1cc(NC(=O)c2cc(Br)ccc2O)cc(OC)c1`, the melting point lay within 207 to 209 °C.
`Clc1cc(N2CCOCC2)nc(-n2cnc3ccccc32)n1` yielded a melting point of 178 to 181 °C.
Turning to `CC(C)(C)OC(=O)C(CN)CC(=O)N1CCNCC1` (stereo not given), the melting point is 142 °C.
For `CC(C)C1(C)C(=O)N=C2c3ncc(C4OCCO4)cc3C(=O)N21` (stereo not given) the value was 146 to 148 °C; for `Nc1cc(=O)nc(Nc2ccccc2)n1-c1ccc(Cl)cc1`, 216 to 222 °C; for `COc1ccc2oc(=O)c(S(=O)(=O)Nc3ccc(Br)cc3)cc2c1`, 166 to 168 °C.
Take `CN1CCC(=O)N(c2ccc(Cl)cc2Cl)C1=O`: the melting point was in the range of 122 to 125 °C.
`OC1(C#Cc2ccc(-c3ccccc3)cc2)CN2CCC1CC2` (stereo not given): the melting point is 217 to 218 °C.
For the molecule `COc1ccc(SCc2ccccc2)c(Cl)c1Cl`, the melting point lay within 116 to 117 °C.
In turn, `CC(C)n1nc(-c2c(-c3ccccc3)nn3ccc(N4CCN(S(=O)(=O)c5ccccc5)CC4)cc23)ccc1=O` gave a melting point of 219 to 220 °C.
For `Cc1cc(N(C)C)ccc1Br`, the melting point is 47 to 49 °C.
On to `O=C(O)CCCNc1ccccc1CNC(=O)C1Cc2ccccc2N1S(=O)(=O)c1ccc(-c2cccc(C(F)(F)F)c2)cc1` (stereo not given), for which the melting point fell in the range of 77 to 81 °C.
In the case of `CCCCCCCCCCCCCCCCCC(=O)c1ccc(C2=NC(C)(C)CO2)cc1` it was 73 to 76 °C.
Turning to `CC(C)c1cc(CN2C(=O)C3(COc4cc5c(cc43)OCO5)c3ccccc32)on1` (stereo not given), the melting point fell in the range of 132 to 136 °C.
For `O=C(O)c1ccc(-c2ccc3cc(OCc4ccc(F)cc4)c(C45CC6CC(CC(C6)C4)C5)cc3c2)cc1O` the value was 240 to 241 °C.
Molecule `COC(=O)c1ccc(OCCCN(C(C)=O)c2ccc(Cl)cc2)cc1` showed a melting point of 68 to 69 °C.
`CCOC(=O)c1csc2cc(OC)ccc12` displayed a melting point of 68 to 69 °C.
In turn, `Cc1nnc2n1-c1sc(C#CCN3C(=O)c4ccccc4S3(=O)=O)cc1C(c1ccccc1Cl)=NC2` had a melting point of 232 to 234 °C.
`FC(F)C(F)(F)Sc1nc(-c2ccccc2)c(-c2ccccc2)[nH]1` gave a melting point of 212 to 213 °C.
The molecule `COCCN1CCc2ccc(Nc3ncc(Cl)c(Nc4ccccc4S(=O)(=O)N4CCC(O)C4)n3)cc2CC1` (stereo not given) yielded a melting point of 120 to 128 °C.
`COc1ccc(CCOc2cccc(-c3cccc(C(=O)NCCN4CCCC4)c3)n2)cc1OC` registered a melting point of 126 to 127 °C.
In the case of `O=C(O)CNC(=O)NCCCCC1CCSS1` (stereo not given) it was 95 to 96 °C.
In the case of `O=C(O)CCC=C(c1ccc(F)cc1)c1ccc(F)cc1` it was 100 °C.
With `N#CN=C(Nc1ccc(C#N)cc1O)Nc1ccccc1Br`, the melting point is 175 to 176 °C.
As for `CCSC(=O)Cc1csc(N)n1`, the melting point was 76 to 77 °C.
Regarding `CC(C(=O)O)c1ccc2oc(-c3ccc(Cl)cc3)nc2c1` (stereo not given), the melting point is 190 °C.
In the case of `COc1cc(C)ccc1Oc1ccc(Br)cc1C=O` it was 89 to 90 °C.
In turn, `CSc1nc(N)c2ncn(C3CCCCC3)c2n1` yielded a melting point of 222 to 224 °C.
For the molecule `Cc1ccc(S(=O)(=O)N2CCCC2CO)cc1` (stereo not given), the melting point was 90 to 91 °C.
`NC(=O)c1ccc(C(=O)Nc2ccc(-n3nc(C(F)(F)F)cc3C(F)(F)F)cc2)cc1`: the melting point was 290 to 291 °C.
The molecule `OC(COc1ccc(-c2ccc(Br)cc2)cc1)CN1CCCC1` (stereo not given) yielded a melting point of 121 to 122 °C.
Consider `C=C(C)Cc1cc(C)c2c(c1O)C(=O)CC2`, for which the melting point lay within 62.5 to 64 °C.
The molecule `CCCCNC(=O)COC1C(O)C(CO)OC(Oc2ccc(N)cc2)C1O` (stereo not given) yielded a melting point of 135 °C.
For `CCCCC(N)S(=O)(=O)O` (stereo not given) the value was 142 °C; for `CSC(C)(C(=O)O)c1ccc(CC(C)C)cc1` (stereo not given), 89 to 92 °C; for `CCOc1ccc(NC(=O)CC(Cc2cccc3ccccc23)C(=O)O)cc1` (stereo not given), 131 to 135 °C.
The molecule `CCCCC(Cc1ccc(OCc2ccccc2)cc1)(C(=O)OCC)C(=O)OCC` displayed a melting point of 73 °C.
`Cc1noc(NS(=O)(=O)c2ccccc2-c2ccc(-c3ncco3)cc2CN(C)C(=O)CCc2ccccc2)c1C`: the melting point fell in the range of 110 to 117 °C.
In turn, `O=C(Nc1ccc(C(F)(F)F)cc1)NC1CCS(=O)(=O)CC1` came in with a melting point of 196 to 198 °C.
Turning to `Nc1nc(Cl)cc(CF)n1`, the melting point came out at 159 °C.
The molecule `N#CC1c2ccccc2Cc2ccccc21` had a melting point of 106 to 108 °C.
Molecule `CC1(C)CCCC(=O)N1` returned a melting point of 128 to 131 °C.
`COCc1ccc(-c2ccc3c(c2)C=C(C(=O)Nc2ccc(CN(C)C4CCOCC4)cc2)CCS3(=O)=O)cc1`: the melting point fell in the range of 227 to 229 °C.
`NC(=O)c1sc2ccc(Br)cc2c1-c1ccccc1` showed a melting point of 201 to 202 °C.
`CCOc1ccc(C(O)CN2CCOCC2)cc1-c1nc2c(C)cccc2c(=O)[nH]1` (stereo not given) displayed a melting point of 145 to 147 °C.
In turn, `COC(=O)C(C)(SC)c1ccc(N2CCCCC2)c(Cl)c1` (stereo not given) returned a melting point of 83.5 to 85 °C.
In turn, `CC(C)(C)OC(=O)NCCCCNc1c([N+](=O)[O-])cnc2cccnc12` displayed a melting point of 137 to 138 °C.
For `Cc1nc(-n2cc(C(=O)c3ccccc3)nn2)sc1C(=O)NCc1ccccc1` the value was 176 to 178 °C; for `CCOCc1nc2c(N)nc3cc(-c4cccc(C(=O)O)c4)ccc3c2n1CC(C)(C)O`, over 250 °C; for `O=C(c1ccccc1)N1CCC2CC(O)(c3ccc(F)cc3)CCC2C1` (stereo not given), 84 to 85 °C.
Regarding `O=C1CC(Sc2nnc(S)s2)C(=O)O1` (stereo not given), the melting point fell in the range of 194 to 196 °C.
For `O=C1c2sc3ccccc3c2C(=O)c2sc3ccccc3c21`, the melting point amounted to 315 °C.
`CCCOc1ncc(NS(=O)(=O)CC(=O)O)cc1-c1nc2c(CCC)nn(C)c2c(=O)[nH]1` gave a melting point of 267 to 270 °C.
In the case of `CCOC(=O)C1(c2ccccc2)CCN(c2ncccn2)CC1`, the melting point lay in the range of 119 to 120 °C.
In the case of `Nc1cccc2c1ncc1nc3n(c12)CCCC3`, the melting point was 275 to 278 °C.
Consider `CCCCCCC1OC1(C(=O)OCC)C(=O)OCC` (stereo not given), for which the melting point was 58 to 60 °C.
As to `O=C(NCCCCCCCCCCCNC(=O)c1ccc(OC(F)(F)F)cc1)c1ccc(OC(F)(F)F)cc1`, the melting point is 142 °C.
Molecule `CCOC(=O)CC(=O)c1ccc([N+](=O)[O-])c(C)c1` showed a melting point of 48 to 50 °C.
In the case of `Cc1nc2ccc3c(c2o1)OC(CN1CCC(n2c(=O)[nH]c4ccccc42)CC1)CO3` (stereo not given) it was 218 to 220 °C.
`COc1cc(-c2cc(=O)c3cccnc3o2)ccc1O`: the melting point was in the range of 253 to 255 °C.
`CCOC(=O)c1c(OC(=O)CCl)c2ccccc2c2nc3ccccc3nc12` had a melting point of 208 to 209 °C.
As for `CCOC(=O)c1ccc(Sc2cc3c(cc2C)C(C)(C)CCC3(C)C)cc1`, the melting point lay within 109 to 110 °C.
Molecule `COC12CC(CN3CCC(c4c[nH]c5ccccc45)CC3)CN(C)C1Cc1c(Br)[nH]c3cccc2c13` (stereo not given) gave a melting point of 160 to 170 °C.
In turn, `COc1ccc(-c2ccc(C(=O)O)c(OC)c2)cc1OC` registered a melting point of 134 to 135 °C.
